Test results published in patent US12233161B1, “Lipids and lipid nanoparticle formulations” (LONGUIDE BIOPHARMA CORPORATION, priority 2024, dated 2025).
One block for each compound: values may come before it.

What was measured:
[1] = Particle size and PDI of nucleic acid lipid nanoparticle preparations by dynamic light scattering; type: physicochemical
Procedure, shortened: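 LNP solution (about 0.04 mg/mL mRNA before dilution) was diluted in ultrapure water and mixed by gentle pipetting. Particle size and PDI were then measured by dynamic light scattering.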

[2] = Potential characterization of nucleic acid lipid nanoparticle preparations; type: physicochemical
Procedure, shortened: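 Zeta potential was read on a Malvern ZEN3700 after diluting 20 μL lipid nanoparticle solution (about 0.04 mg/mL mRNA) into 780 μL ultrapure water. Alternatively, a 27.5 μL sample in 200 μL water was first sized by dynamic light scattering, then diluted with 600 μL more water for potential measurement.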

mice = test: In vivo delivery of FLuc-mRNA lipid nanoparticles in mice, in vivo imaging (IVIS)
Procedure, shortened: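 Mice (n=3) received about 75 μL FLuc-mRNA LNP per mouse intramuscularly (rectus femoris), intravenously (tail vein), intraperitoneally or subcutaneously (back). After injection, D-luciferin (200 μL, 15 mg/mL) was given i.p. 10-15 min before IVIS imaging.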

[3] = mPEG-DMPE:DOPE:Chol:compound 1.40:11.15:38.95:48.50, N/P 24
[4] = DMG-PEG2000:DSPC:Chol:compound 1.00:10.00:33.00:56.00, N/P 42
[5] = DMG-PEG2000:DSPC:Chol:compound 1.40:11.15:38.95:48.50, N/P 30
[6] = IM, DMG-PEG2000:DSPC:Chol:compound 1.40:11.15:38.95:48.50, N/P 30, Fluc-mRNA
[7] = IV, body, DMG-PEG2000:DSPC:Chol:compound 1.00:10.00:33.00:56.00, N/P 42, Fluc-mRNA
[8] = IV, body, DMG-PEG2000:DSPC:Chol:compound 1.40:11.15:38.95:48.50, N/P 30, Fluc-mRNA
[9] = IV, liver, DMG-PEG2000:DSPC:Chol:compound 1.00:10.00:33.00:56.00, N/P 42
[10] = IV, liver, DMG-PEG2000:DSPC:Chol:compound 1.00:10.00:33.00:56.00, N/P 42, Fluc-mRNA
[11] = IV, liver, DMG-PEG2000:DSPC:Chol:compound 1.40:11.15:38.95:48.50, N/P 30
[12] = IV, liver, DMG-PEG2000:DSPC:Chol:compound 1.40:11.15:38.95:48.50, N/P 30, Fluc-mRNA
[13] = IV, lung, DMG-PEG2000:DSPC:Chol:compound 1.00:10.00:33.00:56.00, N/P 42
[14] = IV, lung, DMG-PEG2000:DSPC:Chol:compound 1.00:10.00:33.00:56.00, N/P 42, Fluc-mRNA
[15] = IV, lung, DMG-PEG2000:DSPC:Chol:compound 1.40:11.15:38.95:48.50, N/P 30
[16] = IV, lung, DMG-PEG2000:DSPC:Chol:compound 1.40:11.15:38.95:48.50, N/P 30, Fluc-mRNA
[17] = IV, spleen, DMG-PEG2000:DSPC:Chol:compound 1.00:10.00:33.00:56.00, N/P 42
[18] = IV, spleen, DMG-PEG2000:DSPC:Chol:compound 1.00:10.00:33.00:56.00, N/P 42, Fluc-mRNA
[19] = IV, spleen, DMG-PEG2000:DSPC:Chol:compound 1.40:11.15:38.95:48.50, N/P 30
[20] = IV, spleen, DMG-PEG2000:DSPC:Chol:compound 1.40:11.15:38.95:48.50, N/P 30, Fluc-mRNA
[21] = mRNA LNP, 1.00:10.00:33.00:56.00, N/P 42
[22] = mRNA LNP, 1.40:11.15:38.95:48.50, N/P 30
[23] = mRNA LNP, 1.00:10.00:33.00:56.00, N/P 42, IV, liver
[24] = mRNA LNP, 1.00:10.00:33.00:56.00, N/P 42, IV, lung
[25] = mRNA LNP, 1.00:10.00:33.00:56.00, N/P 42, IV, spleen
[26] = mRNA LNP, 1.40:11.15:38.95:48.50, N/P 30, IV, liver
[27] = mRNA LNP, 1.40:11.15:38.95:48.50, N/P 30, IV, lung
[28] = mRNA LNP, 1.40:11.15:38.95:48.50, N/P 30, IV, spleen
[29] = DMG-PEG2000:DSPC:Chol:compound 1.40:11.15:38.95:48.50, N/P 20
[30] = DSPE-PEG5000:DSPC:Chol:compound 1.40:11.15:38.95:48.50, N/P 30

Compound: CCCCCCC(CCCCCC)C(=O)OCCCCCCOC(=O)C(O)CN(C)CCN(C)CCN(C)CC(O)C(=O)OCCCCCCOC(=O)C(CCCCCC)CCCCCC (stereo not shown) [Compound L0291]
PDI [1, 4]: 0.13
Particle size (nm) [1, 4]: 221.70 nm
PDI [1, 5]: 0.17
Particle size (nm) [1, 5]: 259.67 nm
Zeta potential (mV) [2, 5]: 15.07 mV
IVIS (mice; [6]): 1.87E+07
IVIS (mice; [7]): 2.60E+07
IVIS (mice; [8]): 1.83E+07
% of organ targeting (mice; [9]): 5.08%
IVIS (mice; [10]): 1.32E+06
% of organ targeting (mice; [11]): 61.07%
IVIS (mice; [12]): 3.30E+06
% of organ targeting (mice; [13]): 5.76%
IVIS (mice; [14]): 1.50E+06
% of organ targeting (mice; [15]): 3.97%
IVIS (mice; [16]): 2.14E+05
% of organ targeting (mice; [17]): 89.17%
IVIS (mice; [18]): 2.32E+07
% of organ targeting (mice; [19]): 34.97%
IVIS (mice; [20]): 1.89E+06

Compound: CCCCCCCCCCCCNC(=O)CCN(CCCN(C)CCCN(CCC(=O)NCCCCCCCCCCCC)CCC(=O)NCCCCCCCCCCCC)CCC(=O)NCCCCCCCCCCCC [L0263-Control, reference compound]
PDI [1, 21]: 0.13
Particle size (nm) [1, 21]: 112.27 nm
PDI [1, 22]: 0.16
Particle size (nm) [1, 22]: 102.50 nm
Zeta potential (mV) [2, 21]: 11.13 mV
Zeta potential (mV) [2, 22]: 10.97 mV
% of organ targeting (mice; [23]): 0.59%
IVIS (mice; [23]): 5.33E+06
% of organ targeting (mice; [24]): 97.16%
IVIS (mice; [24]): 8.80E+08
% of organ targeting (mice; [25]): 2.25%
IVIS (mice; [25]): 2.04E+07
IVIS (mice; mRNA LNP, 1.40:11.15:38.95:48.50, N/P 30, IM, organ not given): 7.79E+05
% of organ targeting (mice; [26]): 1.59%
IVIS (mice; [26]): 3.11E+06
% of organ targeting (mice; [27]): 80.11%
IVIS (mice; [27]): 1.57E+08
% of organ targeting (mice; [28]): 18.30%
IVIS (mice; [28]): 3.59E+07
IVIS (mice; mRNA LNP, DMG-PEG2000:DSPC:Chol:lipid 1.00:10.00:33.00:56.00, N/P 42, IV, body): 1.28E+08
IVIS (mice; mRNA LNP, DMG-PEG2000:DSPC:Chol:lipid 1.40:11.15:38.95:48.50, N/P 30, IV, body): 5.69E+07

Compound: CCCCCCCC/C=C\CCCCCCCCNC(=O)C(O)CN(CCCN(C)CCCN(CC(O)C(=O)NCCCCCCCC/C=C\CCCCCCCC)CC(O)C(=O)NCCCCCCCC/C=C\CCCCCCCC)CC(O)C(=O)NCCCCCCCC/C=C\CCCCCCCC (stereo not shown) [Compound L0317]
PDI [1, 5]: 0.15
Particle size (nm) [1, 5]: 117.83 nm
Zeta potential (mV) [2, 5]: 13.53 mV
IVIS (mice; [6]): 1.53E+06
IVIS (mice; [8]): 3.60E+07
% of organ targeting (mice; [11]): 3.15%
IVIS (mice; [12]): 2.78E+06
% of organ targeting (mice; [15]): 79.76%
IVIS (mice; [16]): 7.03E+07
% of organ targeting (mice; [19]): 17.09%
IVIS (mice; [20]): 1.51E+07

Compound: CCCCCCCCCCOC(=O)C(O)CN(CCCCCN(CC(O)C(=O)OCCCCCCCCCC)CC(O)C(=O)OCCCCCCCCCC)CC(O)C(=O)OCCCCCCCCCC (stereo not shown) [Compound L0318]
PDI [1, 29]: 0.25
Particle size (nm) [1, 29]: 571.13 nm
Zeta potential (mV) [2, 29]: 11.23 mV
IVIS (mice; IM, DMG-PEG2000:DSPC:Chol:compound 1.40:11.15:38.95:48.50, N/P 20, Fluc-mRNA): 5.83E+05
IVIS (mice; IV, organ not given, DMG-PEG2000:DSPC:Chol:compound 1.40:11.15:38.95:48.50, N/P 20, Fluc-mRNA): 2.09E+05

Compound: CCCCCCCCCCCCN(C)C(=O)C(O)CN(CCCN(CC(O)C(=O)N(C)CCCCCCCCCCCC)CC(O)C(=O)N(C)CCCCCCCCCCCC)CCCN(CC(O)C(=O)N(C)CCCCCCCCCCCC)CC(O)C(=O)N(C)CCCCCCCCCCCC (stereo not shown) [Compound L0342]
PDI [1, 30]: 0.24
Particle size (nm) [1, 30]: 73.79 nm
Zeta potential (mV) [2, 30]: 5.68 mV
IVIS (mice; IM, DSPE-PEG5000:DSPC:Chol:compound 1.40:11.15:38.95:48.50, N/P 30, Fluc-mRNA): 2.02E+07
IVIS (mice; IV, organ not given, DSPE-PEG5000:DSPC:Chol:compound 1.40:11.15:38.95:48.50, N/P 30, Fluc-mRNA): 5.77E+06

Now from value to compound, other results behind:

PDI [1, 3]: 0.10
Particle size (nm) [1, 3]: 148.60 nm
Zeta potential (mV) [2, 3]: 10.83 mV
Compound: CCCCCCCCCCN(C)C(=O)C(O)CN(CCCN(C)CCCN(CC(O)C(=O)N(C)CCCCCCCCCC)CC(O)C(=O)N(C)CCCCCCCCCC)CC(O)C(=O)N(C)CCCCCCCCCC (stereo not shown) [Compound L0347]
IVIS (mice; IM, mPEG-DMPE:DOPE:Chol:compound 1.40:11.15:38.95:48.50, N/P 24, Fluc-mRNA): 6.65E+04
IVIS (mice; IV, body, mPEG-DMPE:DOPE:Chol:compound 1.40:11.15:38.95:48.50, N/P 24, Fluc-mRNA): 3.20E+06
% of organ targeting (mice; IV, liver, mPEG-DMPE:DOPE:Chol:compound 1.40:11.15:38.95:48.50, N/P 24): 1.47%
IVIS (mice; IV, liver, mPEG-DMPE:DOPE:Chol:compound 1.40:11.15:38.95:48.50, N/P 24, Fluc-mRNA): 1.56E+05
% of organ targeting (mice; IV, lung, mPEG-DMPE:DOPE:Chol:compound 1.40:11.15:38.95:48.50, N/P 24): 86.45%
IVIS (mice; IV, lung, mPEG-DMPE:DOPE:Chol:compound 1.40:11.15:38.95:48.50, N/P 24, Fluc-mRNA): 9.16E+06
% of organ targeting (mice; IV, spleen, mPEG-DMPE:DOPE:Chol:compound 1.40:11.15:38.95:48.50, N/P 24): 12.08%
IVIS (mice; IV, spleen, mPEG-DMPE:DOPE:Chol:compound 1.40:11.15:38.95:48.50, N/P 24, Fluc-mRNA): 1.28E+06

PDI [1, 4]: 0.09
Particle size (nm) [1, 4]: 132.10 nm
PDI [1, 5]: 0.10
Particle size (nm) [1, 5]: 122.57 nm
Zeta potential (mV) [2, 5]: 12.97 mV
Compound: CCCCCCCCCCCCNCC(O)CN(CCCCCN(C)CCCCCN(CC(O)CNCCCCCCCCCCCC)CC(O)C(=O)NCCCCCCCCCCCC)CC(O)C(=O)NCCCCCCCCCCCC (stereo not shown) [Compound L0303]
IVIS (mice; [6]): 9.76E+05
IVIS (mice; [7]): 2.40E+08
IVIS (mice; [8]): 1.33E+08
% of organ targeting (mice; [9]): 0.64%
IVIS (mice; [10]): 2.70E+06
% of organ targeting (mice; [11]): 2.25%
IVIS (mice; [12]): 7.60E+06
% of organ targeting (mice; [13]): 98.72%
IVIS (mice; [14]): 4.17E+08
% of organ targeting (mice; [15]): 96.16%
IVIS (mice; [16]): 3.25E+08
% of organ targeting (mice; [17]): 0.64%
IVIS (mice; [18]): 2.70E+06
% of organ targeting (mice; [19]): 1.59%
IVIS (mice; [20]): 5.38E+06

PDI [1, 5]: 0.17
Particle size (nm) [1, 5]: 89.51 nm
Zeta potential (mV) [2, 5]: 15.97 mV
Compound: CCCCCCCCCCCCNC(=O)C(O)CNCCN(C)CCN(CC(O)C(=O)NCCCCCCCCCCCC)CC(O)C(=O)NCCCCCCCCCCCC (stereo not shown) [Compound L0290]
IVIS (mice; [6]): 3.06E+05
IVIS (mice; IV, organ not given, DMG-PEG2000:DSPC:Chol:compound 1.40:11.15:38.95:48.50, N/P 30, Fluc-mRNA): 1.18E+06

PDI [1, 5]: 0.12
Particle size (nm) [1, 5]: 108.77 nm
Zeta potential (mV) [2, 5]: 12.50 mV
Compound: CCCCCCCCCCCCNC(=O)C(O)CNCCCN(C)CCCN(CC(O)C(=O)NCCCCCCCCCCCC)CC(O)C(=O)NCCCCCCCCCCCC (stereo not shown) [Compound L0288]
IVIS (mice; [6]): 1.45E+05
IVIS (mice; [8]): 6.03E+06
% of organ targeting (mice; [11]): 5.74%
IVIS (mice; [12]): 5.25E+05
% of organ targeting (mice; [15]): 78.38%
IVIS (mice; [16]): 7.18E+06
% of organ targeting (mice; [19]): 15.88%
IVIS (mice; [20]): 1.45E+06
